ChEMBL document CHEMBL1201862, “PubChem BioAssay data set” (2004)
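Cultured in 96-well plates, cells were exposed to test compound for 48 hours across five concentrations. At the GI50, growth is halved.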 The source made the active and inactive calls. Cut-off read from the data, not from the text of the source: active = GI50 up to about 1.1 µM and inactive = higher.

Legend:
Test in all cases: growth of human tumour cells (NCI), 48 h
[1] = system: CAKI-1
[2] = system: COLO 205
[3] = system: DLD-1
[4] = system: DMS-114
[5] = system: HOP-18
[6] = system: HT-29
[7] = system: KM-20L2
[8] = system: KM12
[9] = system: MOLT-4
[10] = system: NCI-H23
[11] = system: NCI-H522
[12] = system: NCI/ADR-RES
[13] = system: UACC-257
[14] = system: 786-0
[15] = system: BT-549
[16] = system: DU-145
[17] = system: Hs-578T
[18] = system: MDA-MB-435
[19] = system: PC-3
[20] = system: T47D

## CCNC(=O)C(C)C1CCC2(C)C=CC(=O)C(C)=C2C1O (stereo unspecified)
[1]
  GI50: > 100 µM (inactive)
[2]
  GI50: > 100 µM (inactive)
[3]
  GI50: > 100 µM (inactive)
[4]
  GI50: > 100 µM (inactive)
[5]
  GI50: > 100 µM (inactive)
[6]
  GI50: > 100 µM (inactive)
[7]
  GI50: > 100 µM (inactive)
[8]
  GI50: > 100 µM (inactive)
[9]
  GI50: > 100 µM (inactive)
[10]
  GI50: > 100 µM (inactive)
[11]
  GI50: > 100 µM (inactive)
[12]
  GI50: > 100 µM (inactive)
[13]
  GI50: > 100 µM (inactive)

## Cc1ccc(C=C(C(=O)O)C(=O)O)o1
[14]
  GI50: > 100 µM (inactive)
[15]
  GI50: > 100 µM (inactive)
[1]
  GI50: > 100 µM (inactive)
[2]
  GI50: > 100 µM (inactive)
[16]
  GI50: > 100 µM (inactive)
[6]
  GI50: > 100 µM (inactive)
[17]
  GI50: > 100 µM (inactive)
[8]
  GI50: > 100 µM (inactive)
[18]
  GI50: > 100 µM (inactive)
[9]
  GI50: > 100 µM (inactive)
[10]
  GI50: > 100 µM (inactive)
[11]
  GI50: > 100 µM (inactive)
[12]
  GI50: > 100 µM (inactive)
[19]
  GI50: > 100 µM (inactive)
[13]
  GI50: > 100 µM (inactive)

## Cc1ccc([N+](=O)[O-])cc1S(=O)(=O)Nc1ccc(C2=NN(C(=O)c3ccccc3)C(c3ccccc3)C2)cc1 (stereo unspecified)
[14]
  GI50: 17.4 µM (inactive)
[15]
  GI50: 22.6 µM (inactive)
[1]
  GI50: 20 µM (inactive)
[2]
  GI50: 16.9 µM (inactive)
[16]
  GI50: 34 µM (inactive)
[6]
  GI50: 24.9 µM (inactive)
[17]
  GI50: 22.1 µM (inactive)
[8]
  GI50: 26.2 µM (inactive)
[18]
  GI50: 21.2 µM (inactive)
[9]
  GI50: 15.5 µM (inactive)
[10]
  GI50: 21.4 µM (inactive)
[11]
  GI50: 11.5 µM (inactive)
[12]
  GI50: 30.4 µM (inactive)
[19]
  GI50: 19.8 µM (inactive)
[20]
  GI50: 10.6 µM (inactive)
[13]
  GI50: 20.6 µM (inactive)

## CCOC(=O)CN1CCS/C1=N/C#N
[1]
  GI50: > 100 µM (inactive)
[2]
  GI50: > 100 µM (inactive)
[3]
  GI50: > 100 µM (inactive)
[4]
  GI50: > 100 µM (inactive)
[5]
  GI50: > 100 µM (inactive)
[6]
  GI50: > 42.4 µM (inactive)
[7]
  GI50: > 100 µM (inactive)
[8]
  GI50: > 100 µM (inactive)
[9]
  GI50: > 100 µM (inactive)
[10]
  GI50: > 87.5 µM (inactive)
[11]
  GI50: > 100 µM (inactive)
[12]
  GI50: > 100 µM (inactive)
[13]
  GI50: > 100 µM (inactive)

## CC1=CC(O)C(O)C2(C)C1CC1OC(=O)C(O)C3C(C)C(O)C4(O)OCC13C42 (stereo unspecified)
[1]
  GI50: 32.8 µM (inactive)
[2]
  GI50: 20.1 µM (inactive)
[3]
  GI50: 135 µM (inactive)
[4]
  GI50: 35.4 µM (inactive)
[5]
  GI50: 155 µM (inactive)
[6]
  GI50: 38.1 µM (inactive)
[7]
  GI50: 22.4 µM (inactive)
[8]
  GI50: 13.3 µM (inactive)
[9]
  GI50: 12.2 µM (inactive)
[10]
  GI50: 49.5 µM (inactive)
[11]
  GI50: 50.5 µM (inactive)
[12]
  GI50: 242 µM (inactive)
[13]
  GI50: 103 µM (inactive)

## COc1cc(C=O)cc(O)c1O
[14]
  GI50: > 100 µM (inactive)
[2]
  GI50: > 100 µM (inactive)
[3]
  GI50: > 100 µM (inactive)
[4]
  GI50: > 100 µM (inactive)
[6]
  GI50: 8.07 µM (inactive)
[7]
  GI50: > 100 µM (inactive)
[8]
  GI50: > 100 µM (inactive)
[9]
  GI50: > 100 µM (inactive)
[10]
  GI50: > 100 µM (inactive)
[11]
  GI50: 99.8 µM (inactive)
[13]
  GI50: > 100 µM (inactive)

## CSC1=C(SC)C(=O)c2cn(C)c(=O)cc2C1=O
[15]
  GI50: 2.14 µM (inactive)
[2]
  GI50: 1.49 µM (inactive)
[16]
  GI50: 8.47 µM (inactive)
[6]
  GI50: 6.14 µM (inactive)
[17]
  GI50: 7.67 µM (inactive)
[8]
  GI50: 21.6 µM (inactive)
[18]
  GI50: 1.79 µM (inactive)
[9]
  GI50: 1.08 µM (active)
[10]
  GI50: 4.57 µM (inactive)
[11]
  GI50: 0.853 µM (active)
[12]
  GI50: > 19.7 µM (inactive)
[19]
  GI50: 9.55 µM (inactive)
[20]
  GI50: 2.05 µM (inactive)
[13]
  GI50: 2.34 µM (inactive)

## CC(C)[C@](O)(C(=O)OCC1CC[N+]2([O-])CC[C@@H](O)C12)[C@H](C)O (stereo partly specified)
[1]
  GI50: > 375 µM (inactive)
[2]
  GI50: > 375 µM (inactive)
[3]
  GI50: > 375 µM (inactive)
[4]
  GI50: > 375 µM (inactive)
[5]
  GI50: 105 µM (inactive)
[6]
  GI50: > 375 µM (inactive)
[7]
  GI50: > 375 µM (inactive)
[8]
  GI50: > 375 µM (inactive)
[9]
  GI50: > 375 µM (inactive)
[10]
  GI50: > 375 µM (inactive)
[11]
  GI50: > 375 µM (inactive)
[12]
  GI50: > 375 µM (inactive)
[13]
  GI50: > 375 µM (inactive)

## O=C1OC2CC=CC1C2 (stereo unspecified)
[2]
  GI50: > 100 µM (inactive)
[3]
  GI50: > 100 µM (inactive)
[4]
  GI50: > 100 µM (inactive)
[5]
  GI50: > 100 µM (inactive)
[6]
  GI50: > 100 µM (inactive)
[7]
  GI50: > 100 µM (inactive)
[8]
  GI50: > 100 µM (inactive)
[9]
  GI50: > 100 µM (inactive)
[10]
  GI50: > 100 µM (inactive)
[11]
  GI50: > 100 µM (inactive)
[12]
  GI50: > 100 µM (inactive)
[13]
  GI50: > 100 µM (inactive)

## COc1ccc(NC(=S)NNC(=O)c2nsc3ccccc23)cc1
[2]
  GI50: 43.9 µM (inactive)
[4]
  GI50: 32.1 µM (inactive)
[6]
  GI50: 45.9 µM (inactive)
[7]
  GI50: 39.1 µM (inactive)
[8]
  GI50: 37.3 µM (inactive)
[9]
  GI50: 24.5 µM (inactive)
[10]
  GI50: 41.8 µM (inactive)
[13]
  GI50: 36 µM (inactive)

## CSCCC(NOC(=O)Cc1ccccc1)P(=O)(O)c1ccccc1 (stereo unspecified)
[1]
  GI50: > 100 µM (inactive)
[2]
  GI50: > 100 µM (inactive)
[16]
  GI50: > 100 µM (inactive)
[6]
  GI50: > 100 µM (inactive)
[17]
  GI50: > 100 µM (inactive)
[18]
  GI50: > 100 µM (inactive)
[9]
  GI50: > 100 µM (inactive)
[10]
  GI50: > 100 µM (inactive)
[11]
  GI50: > 100 µM (inactive)
[12]
  GI50: > 100 µM (inactive)
[19]
  GI50: > 100 µM (inactive)
[20]
  GI50: > 100 µM (inactive)
[13]
  GI50: > 100 µM (inactive)

## Nc1nc(=O)[nH]cc1F [FLUCYTOSINE]
[14]
  GI50: > 100 µM (inactive)
[15]
  GI50: > 100 µM (inactive)
[1]
  GI50: > 100 µM (inactive)
[2]
  GI50: > 100 µM (inactive)
[16]
  GI50: > 100 µM (inactive)
[6]
  GI50: > 100 µM (inactive)
[17]
  GI50: > 100 µM (inactive)
[8]
  GI50: > 100 µM (inactive)
[18]
  GI50: > 100 µM (inactive)
[9]
  GI50: > 100 µM (inactive)
[10]
  GI50: > 100 µM (inactive)
[11]
  GI50: > 100 µM (inactive)
[12]
  GI50: > 100 µM (inactive)
[19]
  GI50: > 100 µM (inactive)
[20]
  GI50: > 100 µM (inactive)
[13]
  GI50: 24 µM (inactive)

## COc1ccc2c(c1)c1c(n2CCN2CCCCC2)-c2cccc(OC)c2CC1
[14]
  GI50: 20.2 µM (inactive)
[15]
  GI50: 13.9 µM (inactive)
[1]
  GI50: 16.4 µM (inactive)
[2]
  GI50: 16.7 µM (inactive)
[16]
  GI50: 32 µM (inactive)
[6]
  GI50: 4.58 µM (inactive)
[17]
  GI50: 19.5 µM (inactive)
[8]
  GI50: 13 µM (inactive)
[18]
  GI50: 14.7 µM (inactive)
[9]
  GI50: 16.4 µM (inactive)
[10]
  GI50: 14.8 µM (inactive)
[11]
  GI50: 3.82 µM (inactive)
[12]
  GI50: 18.7 µM (inactive)
[19]
  GI50: 12.7 µM (inactive)
[20]
  GI50: 16.3 µM (inactive)
[13]
  GI50: 18.2 µM (inactive)

## COc1cc2c(oc(=O)c3cc4cc([Si](C)(C)C)oc4c(OC)c32)c2cccc(O)c12
[14]
  GI50: > 100 µM (inactive)
[1]
  GI50: > 100 µM (inactive)
[2]
  GI50: > 100 µM (inactive)
[3]
  GI50: > 100 µM (inactive)
[4]
  GI50: > 100 µM (inactive)
[5]
  GI50: > 100 µM (inactive)
[6]
  GI50: > 100 µM (inactive)
[7]
  GI50: > 100 µM (inactive)
[8]
  GI50: > 100 µM (inactive)
[9]
  GI50: > 100 µM (inactive)
[10]
  GI50: > 100 µM (inactive)
[11]
  GI50: > 100 µM (inactive)
[13]
  GI50: > 100 µM (inactive)

## Oc1nc2c(c(-c3ccccc3Cl)n1)COC/C2=C\c1ccccc1Cl
[14]
  GI50: > 100 µM (inactive)
[15]
  GI50: > 100 µM (inactive)
[1]
  GI50: > 100 µM (inactive)
[2]
  GI50: > 100 µM (inactive)
[16]
  GI50: > 100 µM (inactive)
[6]
  GI50: > 100 µM (inactive)
[17]
  GI50: > 100 µM (inactive)
[8]
  GI50: > 100 µM (inactive)
[18]
  GI50: > 100 µM (inactive)
[9]
  GI50: 55.5 µM (inactive)
[10]
  GI50: > 100 µM (inactive)
[12]
  GI50: > 100 µM (inactive)
[19]
  GI50: > 100 µM (inactive)
[20]
  GI50: > 100 µM (inactive)
[13]
  GI50: > 100 µM (inactive)

## Clc1ccc(C2SCc3nc4ccccc4n32)cc1 (stereo unspecified)
[1]
  GI50: 16.8 µM (inactive)
[2]
  GI50: 16.5 µM (inactive)
[4]
  GI50: 5.57 µM (inactive)
[5]
  GI50: 23.3 µM (inactive)
[6]
  GI50: 19.5 µM (inactive)
[7]
  GI50: 28.2 µM (inactive)
[9]
  GI50: 18 µM (inactive)
[10]
  GI50: 10.9 µM (inactive)
[11]
  GI50: 14.4 µM (inactive)

## C=C1C(=O)O[C@@H]2/C=C(\C)CC/C=C(\C)CC[C@@]12O
[14]
  GI50: 1.37 µM (inactive)
[15]
  GI50: 1.99 µM (inactive)
[1]
  GI50: 1.35 µM (inactive)
[2]
  GI50: 1.84 µM (inactive)
[16]
  GI50: 1.97 µM (inactive)
[6]
  GI50: 2.99 µM (inactive)
[17]
  GI50: 8.79 µM (inactive)
[8]
  GI50: 8.95 µM (inactive)
[18]
  GI50: 2.62 µM (inactive)
[9]
  GI50: 1.41 µM (inactive)
[10]
  GI50: 1.67 µM (inactive)
[11]
  GI50: 0.371 µM (active)
[12]
  GI50: 10.6 µM (inactive)
[19]
  GI50: 4.28 µM (inactive)
[20]
  GI50: 1.41 µM (inactive)
[13]
  GI50: 4.86 µM (inactive)
